This note sets out measurements from patent US10428076B2, “Soluble guanylate cyclase stimulators” (Merck Sharp & Dohme Corp., priority 2015, dated 2019).

A word on the EC50: it is the concentration giving half of the maximal effect. Low values mean an effect from little substance, high ones a need for much substance. A word on the Ki: it is the equilibrium dissociation constant of an inhibitor or competing ligand from its target.

SMILES strings stand for the structures.

The target of the first assay is sGC α1/β1 heterodimer stably expressed in CHO-K1 cells (CHO-K1/sGC) (Homo sapiens (Human), UniProt Q02108+Q02153). Description: Cell-based sGC functional assay (Cyclic GMP Assay for sGC Activator: CASA assay). The note with it: CHO-K1, activity expressed as a percentage of compound A (standard), read-out: % Activation. From the text:
Cell-based sGC Functional Assay (Cyclic GMP Assay for sGC Activator: CASA Assay)
Soluble guanylate cyclase (sGC) is a heme-containing enzyme that converts GTP to secondary messenger cGMP. Increases in cGMP levels affect several physiological processes including vasorelaxation through multiple downstream pathways. […] Heme-dependent activators (HDAs) preferentially activate sGC containing a ferrous heme group. To determine the effect of sGC activators on enzyme activity, the CASA assay was developed to monitor the generation of cGMP in a cell line that stably expresses the heterodimeric sGC protein.
Methods: A CHO-K1 cell line stably expressing the sGC α1/β1 heterodimer was generated using a standard transfection protocol. CHO-K1 cells were transfected with plasmids pIREShyghsGCα1 and pIRESneo-hsGCβ1 simultaneously using FUGENE reagent. Clones that stably express both subunits were selected with hygromycin and neomycin for ˜2 weeks. Clone #7 was chosen for the assay and was designated CHO-K1/sGC. CHO-K1/sGC cells were maintained in F-K12 medium containing 10% heat-inactivated Fetal Bovine Serum (FBS), 100 μg/mL penicillin/streptomycin, 0.5 mg/mL hygromycin and 0.25 mg/mL G418. The cells were then cryopreserved in LN2. On the day of the assay, the cells were thawed and resuspended in EBSS Assay Buffer (Sigma, E3024) supplemented with 5 mM MgCl2, 10 mM HEPES (4-(2-hydroxyethyl)piperazine-1-ethanesulfonic acid) and 0.05% BSA (bovine serum albumin) (EAB) and cell density was then adjusted to 2.25×10^5/mL with EAB. IBMX (3-isobutyl-1-methylxanthin, 0.5 mM) was added to inhibit degradation of cGMP. Compounds were diluted from DMSO stock solutions and added to the assay at a final DMSO concentration of 2.5%. Cells were pre-incubated in the presence and absence of 1 μM of Diethylenetriamine/nitric oxide adduct (DETA-NO; Sigma, 17018) for 30 min at 25° C. Compounds are subsequently added and incubated for 1 hr at 37° C. At the end of the incubation period, the reaction was terminated and the cells were lysed with the detection reagents from Cisbio Kits. The level of intracellular cGMP was determined using an HTRF-based assay kit (CisBio, 62GM2PEC), which detects the displacement of a fluorescence labeled cGMP from its specific antibody. The cGMP produced by test compounds was directly compared to the maximum cGMP production (this value was set to equal 100% activation.) of the published sGC-HDA compound A:
[drawing 491] (Example 1 in WO 2010/065275, published Jun. 10, 2010). The test compounds' activity were then expressed as a percentage of compound A, the standard in every experiment. This percent activation was calculated either in the presence or absence of DETA-NO which was then plotted. Inflection points (IP) and maximum fold induction was derived using Abase analysis software for 4P fit.
`CC1(c2cn(C(C)(C)C(=O)O)nn2)C(=O)Nc2nc(-c3nn(Cc4ccccc4F)c4cc(Cl)ccc34)nc(N)c21` (single isomer, unassigned) [Example 141A, 2-(4-{4-Amino-2-[6-chloro-1-(2-fluorobenzyl)-1H-indazol-3-yl]-5-methyl-6-oxo-6,7-dihydro-5H-pyrrolo[2,3-d]pyrimidin-5-yl}-1H-1,2,3-triazol-1-yl)-2-methylpropanoic acid]: the Emax turned out to be 98.7%.
The same measure, in the same setting: as for `CC1(c2ccc(CCc3nn[nH]n3)cn2)C(=O)Nc2nc(-c3nn(Cc4ccccc4F)c4cc(Cl)ccc34)nc(N)c21` (single isomer, unassigned) [Example 247A, 5-{5-[2-(2H-tetrazol-5-yl)ethyl]pyridin-2-yl}-4-amino-2-[6-chloro-1-(2-fluorobenzyl)-1H-indazol-3-yl]-5-methyl-5,7-dihydro-6H-pyrrolo[2,3-d]pyrimidin-6-one], the figure is 86.9%.
On the same count and under the same terms, the figure for `CC1(c2cccc(-c3nn[nH]n3)c2)C(=O)Nc2nc(-c3nn(CCC(F)(F)C(F)(F)F)c4ncccc34)nc(N)c21` (single isomer, unassigned) [Example 252B, 4-amino-5-methyl-2-[1-(3,3,4,4,4-pentafluorobutyl)-1H-pyrazolo[3,4-b]pyridin-3-yl]-5-[3-(2H-tetrazol-5-yl)phenyl]-5,7-dihydro-6H-pyrrolo[2,3-d]pyrimidin-6-one] is 87.6%.
On the same count and under the same terms, the figure for `CC(C)(Cc1coc(C2(C)C(=O)Nc3nc(-c4nn(CC5CCCCO5)c5ccccc45)nc(N)c32)n1)C(=O)O` (single isomer, unassigned) [Example 230AA, 3-{2-[4-amino-5-methyl-6-oxo-2-{1-[tetrahydro-2H-pyran-2-ylmethyl]-1H-indazol-3-yl}-6,7-dihydro-5H-pyrrolo[2,3-d]pyrimidin-5-yl]-1,3-oxazol-4-yl}-2,2-dimethylpropanoic acid] is 99.1%; for `CC(C)(Cc1csc(C2(C3CC3)C(=O)Nc3nc(-c4nn(CCCC(F)(F)F)c5ncc(F)cc45)nc(N)c32)n1)C(=O)O` (stereo not drawn) [Example 96B, 3-(2-{4-amino-5-cyclopropyl-2-[5-fluoro-1-(4,4,4-trifluorobutyl)-1H-pyrazolo[3,4-b]pyridin-3-yl]-6-oxo-6,7-dihydro-5H-pyrrolo[2,3-d]pyrimidin-5-yl}thiazol-4-yl)-2,2-dimethylpropanoic acid] it is 54%.
Consider `CC1(N2CCC(CCC(=O)O)C2)C(=O)Nc2nc(-c3nn(Cc4ccccc4F)c4cc(Cl)ccc34)nc(N)c21` (single isomer, unassigned) [Example 261C, 3-[1-{4-Amino-2-[6-chloro-1-(2-fluorobenzyl)-1H-indazol-3-yl]-5-methyl-6-oxo-6,7-dihydro-5H-pyrrolo[2,3-d]pyrimidin-5-yl}pyrrolidin-3-yl]propanoic acid], for which the Emax was determined as 113%.
Still for that read-out and setting: the figure for `CC1(c2cccc(-c3nn[nH]n3)n2)C(=O)Nc2nc(-c3nn(Cc4ccccc4F)c4cc(Cl)ccc34)nc(N)c21` (single isomer, unassigned) [Example 253A, 5-[6-(2H-tetrazol-5-yl)pyridin-2-yl]-4-amino-2-[6-chloro-1-(2-fluorobenzyl)-1H-indazol-3-yl]-5-methyl-5,7-dihydro-6H-pyrrolo[2,3-d]pynmidin-6-one] is 96.7%; for `CC1CCC(Cn2nc(-c3nc(N)c4c(n3)NC(=O)C4(C)c3nc(CC(C)(C)C(=O)O)co3)c3ccc(F)cc32)CC1` (racemic) [Example 137AA, 3-{2-[4-amino-2-{6-fluoro-1-[4-methylcyclohexylmethyl]-1H-indazol-3-yl}-5-methyl-6-oxo-6,7-dihydro-5H-pyrrolo[2,3-d]pyrimidin-5-yl]-1,3-oxazol-4-yl}-2,2-dimethylpropanoic acid] it is 92.1%; for `CC(C)(Cn1cc(C2(C)C(=O)Nc3nc(-c4nn(Cc5ccccc5F)c5cc(Cl)ccc45)nc(N)c32)nn1)C(=O)O` (single isomer, unassigned) [Example 140A, 3-(4-{4-Amino-2-[6-chloro-1-(2-fluorobenzyl)-1H-indazol-3-yl]-5-methyl-6-oxo-6,7-dihydro-5H-pyrrolo[2,3-d]pyrimidin-5-yl}-1H-1,2,3-triazol-1-yl)-2,2-dimethylpropanoic acid] it is 99%.
The same measure, in the same setting: as for `CC1(c2nn(C(C)(C)C(=O)O)c(=O)o2)C(=O)Nc2nc(-c3nn(CCC(F)(F)C(F)(F)F)c4cc(Cl)ccc34)nc(N)c21` (single isomer, unassigned) [Example 99B, 2-[5-{4-Amino-2-[6-chloro-1-(3,3,4,4,4-pentafluorobutyl)-1H-indazol-3-yl]-5-methyl-6-oxo-6,7-dihydro-5H-pyrrolo[2,3-d]pyrimidin-5-yl}-2-oxo-1,3,4-oxadiazol-3(2H)-yl]-2-methylpropanoic acid], the figure is 110%; as for `CC1(c2ccc(CCS(=O)(=O)O)cc2)C(=O)Nc2nc(-c3nn(Cc4ccccc4F)c4cc(Cl)ccc34)nc(N)c21` (single isomer, unassigned) [Example 258B, 2-(4-{4-Amino-2-[6-chloro-1-(2-fluorobenzyl)-1H-indazol-3-yl]-5-methyl-6-oxo-6,7-dihydro-5H-pyrrolo[2,3-d]pyrimidin-5-yl}phenyl)ethanesulfonic acid], 98.2%.
As to `CC1(c2ccc(CCc3nn[nH]n3)cn2)C(=O)Nc2nc(-c3nn(Cc4ccccc4F)c4ccccc34)nc(N)c21` (single isomer, unassigned) [Example 246A, 5-{5-[2-(2H-tetrazol-5-yl)ethyl]pyridin-2-yl}-4-amino-2-[1-(2-fluorobenzyl)-1H-indazol-3-yl]-5-methyl-5,7-dihydro-6H-pyrrolo[2,3-d]pyrimidin-6-one], the Emax came to 95.3%.

Still in this assay, the particulars now being: activity expressed as a percentage of compound A (standard).
As to `C[C@@]1(c2ccc(CCc3noc(=O)[nH]3)cc2)C(=O)Nc2nc(-c3nn(Cc4ccccc4F)c4cc(Cl)ccc34)nc(N)c21` [Example 256B, (S)-4-Amino-2-[6-chloro-1-(2-fluorobenzyl)-1H-indazol-3-yl]-5-methyl-5-{4-[2-(5-oxo-4,5-dihydro-1,2,4-oxadiazol-3-yl)ethyl]phenyl}-5,7-dihydro-6H-pyrrolo[2,3-d]pyrimidin-6-one], the “% Activation” value came out at 104.4%.

The same assay, now with this note: inflection point (IP) from 4P fit of percent activation.
In the case of `CC(C)(Cc1csc(C2(C3CC3)C(=O)Nc3nc(-c4nn(CCCC(F)(F)F)c5ncc(F)cc45)nc(N)c32)n1)C(=O)O` (stereo not drawn) [Example 96B, 3-(2-{4-amino-5-cyclopropyl-2-[5-fluoro-1-(4,4,4-trifluorobutyl)-1H-pyrazolo[3,4-b]pyridin-3-yl]-6-oxo-6,7-dihydro-5H-pyrrolo[2,3-d]pyrimidin-5-yl}thiazol-4-yl)-2,2-dimethylpropanoic acid], the concentration for a half-maximal effect (EC50) came to 311 nM.

A further assay deals with human recombinant sGC enzyme (Homo sapiens (Human), UniProt Q02108+Q02153). The experiment in a line: Size Exclusion Chromatography (SEC) competition binding assay using [3H] Ex-77B as the radioligand. The note with it: [3H] Ex-77B radioligand, 24 hours at 37° C., 300 μM DETA/NO. As for the experimental part:
Binding Assay: The binding potencies of sGC compounds to the human recombinant sGC enzyme were determined in a Size Exclusion Chromatography (SEC) competition binding assay using [^3H] Ex-77B as the radioligand. [^3H] […] The parent (non-labeled) molecule was first iodinated then a Pd-catalyzed iodine to tritium exchange provided the labeled compound. […] Assays were conducted in 96-well plates in a total volume of 200 μL. […] Non-specific binding was defined by competition with 1 μM of Ex-77B. After the incubation period, the binding mixtures were loaded onto the gel-filtration plate (ThermoFischer Cat. No. 89808) pre-equilibrated with binding buffer and spun at 1000×g for 3 min at 4° C. on a Bench top centrifuge. The collected eluates in White Frame Clear Well Isoplates (Perkin Elmer Cat #6005040) received 100 μl of UltimaGold scintillation cocktail. The sealed plates were shaken vigorously and span, and counted after 6 hours with a Wallac Microbeta TriLux 1450 LSC & Luminescence Counter (Perkin Elmer).
For orientation: SEC sorts molecules by how far they enter the pores of the column.
As for `CC(C)(Cc1csc(C2(C3CC3)C(=O)Nc3nc(-c4nn(CCCC(F)(F)F)c5ncc(F)cc45)nc(N)c32)n1)C(=O)O` (stereo not drawn) [Example 96B, 3-(2-{4-amino-5-cyclopropyl-2-[5-fluoro-1-(4,4,4-trifluorobutyl)-1H-pyrazolo[3,4-b]pyridin-3-yl]-6-oxo-6,7-dihydro-5H-pyrrolo[2,3-d]pyrimidin-5-yl}thiazol-4-yl)-2,2-dimethylpropanoic acid], the Ki stood at 12.2 nM.
